The results in this text go back to patent publication US10532082B2, “SOCS1-derived peptide for use in chronic complications of diabetes” (Fundació Hospital Universitari Vall d'Hebron-Institut de …, priority 2014, dated 2020).

The test system of test [1] is diabetic mice (db/db). The test can be described thus: Retinal IL-1β mRNA expression by RT-PCR. The format is in vivo. As to conditions: eye drops 15 days, retina mRNA RT-PCR. As to the method:
8-week old diabetic mice (db/db) received the miS1 peptide in the form of eye drops (5 μL drops in each eye; 10 mg/mL; twice a day for 15 days; n=7 mice). Diabetic mice treated with the non-functional peptide Mut (n=7), treated with vehicle and non-diabetic mice (db/+) were used as controls. The eye drops were directly administered on the upper surface of the cornea of each eye using a micropipette. The weight and glycemia (colorimetric assay) were controlled throughout the study period. On day 15, the drop with the miS1 peptide or vehicle was administered about two hours before autopsy. The animals were euthanized by cervical dislocation and the enucleated eyes were immediately frozen and dorsoventral sections of […] were cut for analyzing retinal morphology and other immunohistochemical analyses.
The expression of IL-1β, TNF-α and IL-6 was evaluated. The total RNA was extracted with RNeasy Mini Kit with DNAse digestion (QIAGEN, distributed by IZASA, Barcelona, Spain) according to manufacturer's instructions. The RNA (1 μg) was used for reverse transcription with random hexanucleotide primers and Applied Biosystems reagents (Applied Biosystems, Madrid, Spain) in a reaction volume of 20 μl. […] The ΔΔCt method was used for obtaining the relative quantification (RQ).

Test [2] concerns diabetic mice (db/db). The test can be described thus: Glial activation by GFAP immunofluorescence in retina, topical eye drops. The format is in vivo. Here is the method:
8-week old diabetic mice (db/db) received the miS1 peptide in the form of eye drops (5 μL drops in each eye; 10 mg/mL; twice a day for 15 days; n=7 mice). Diabetic mice treated with the non-functional peptide Mut (n=7), treated with vehicle and non-diabetic mice (db/+) were used as controls. The eye drops were directly administered on the upper surface of the cornea of each eye using a micropipette. The weight and glycemia (colorimetric assay) were controlled throughout the study period. On day 15, the drop with the miS1 peptide or vehicle was administered about two hours before autopsy. […]
Glial activation was evaluated by means of GFAP (Glial fibrillar acidic protein) immunofluorescence following the methodology described in other studies (Bogdanov et al. PLoS One. 2014; 9:e97302). […] The images of diabetic and control samples were taken with identical parameters and the topographic distribution of the GFAP labelling was analyzed in a scale of 0 to 5 (Anderson et al. Clin Ophthalmol 2008; 2(4):801-16). […] Apoptosis was determined by means of TUNEL (Terminal Transferase dUTP Nick-EndLabeling; fluorescence kit) immunohistochemistry using the previously described method (Bogdanov et al. PLoS One. 2014; 9:e97302) and subsequent quantification under a fluorescence microscope. […]

Test [3] concerns streptozotocin diabetic apoE-deficient mice. The test can be described thus: Atheromatous plaque size and composition in aorta of diabetic mice. As to conditions: STZ apoE mice, i.p. The format is in vivo. Here is the method:
Apolipoprotein E (apoE)-deficient male mice of 8 weeks of age were made diabetic through streptozotocin injection (125 mg/kg weight in 10 mM citrate, pH 4.5, two consecutive days). After 2 weeks, animals with glycemia greater than 350 mg/dL were randomly distributed in two groups (n=9 animals per group): treated animals (miS1 peptide: 65 μg/day, 200 μL, intraperitoneally, every 2 days for 8 weeks) and controls (vehicle). The weight and glycemia (colorimetric assay) were controlled throughout the study period.
At the end of the study, the anesthetized animals were perfused with saline and sacrificed, processing the tissues immediately. In renal cortex (paraffin sections, 5 μm) the glomerular and tubulointerstitial morphology was studied by means of PAS and Masson trichrome staining and the lesions were evaluated in a double-blind and semi-quantitative manner in a scale of 0-3. Renal fibrosis was determined by means of Picro-Sirius red staining and the infiltrating inflammatory cells (F4/80+ macrophages and CD3+ T-lymphocytes) by immunohistochemistry. In the aorta, the root/arch zone (serial cryosections of 8 μm from the valves to an extension of 1000 μm) was stained with Oil-red-O/hematoxylin and the area of the atherosclerotic lesion was quantified (Metamorph program). Plaque stability was assessed by collagen fiber staining with Picro-Sirius red and α-actin immunofluorescence. The inflammatory component was determined by means of immunohistochemistry for monocyte/macrophages (Moma2). The Image Pro-Plus program was used for quantifying positive stainings. The biochemical parameters in serum (glycated hemoglobin, cholesterol and creatinine) and in urine (albumin and creatinine) were determined by means of conventional commercial kits.

Another test has as its system STAT3. The test can be described thus: STAT3 activation in cytokine-stimulated macrophages (Western blot). The format is cell-based, murine. As to conditions: pre-incubation 50-150 ug/mL (Mut 150 ug/mL), IFNγ and IL-6 stimulation. Here is the method: RAW264.7 macrophages and vascular smooth muscle cells (VSMC) cultured in a medium with 10% fetal bovine serum were used. The cells were synchronized (24 hours without serum), pre-incubated for 90 minutes with different peptide concentrations (miS1 or the control thereof, 50-150 μg/mL) and stimulated with cytokines (IFNγ […]). STAT activation was analyzed by means of Western blot for phosphorylated STAT1/STAT3 isoforms. JAK/STAT pathway-dependent chemokine (CCL2) expression was determined by means of ELISA. Cell viability was analyzed by MTT colorimetric assay and macrophage migration was analyzed by chemotaxis assay.

Where no end group is shown, it is not given here. [ ]: non-standard residue; d: D form. lysine‑palmitate = lysine-palmitate bound at the N-terminal end; pY = N[C@@H](Cc1ccc(OP(=O)(O)O)cc1)C(=O)O

Take “miS1: SEQ ID NO 1 DTHFRTFRSHSDYRRI, kinase inhibitory region of murine SOCS1, bound to lysine-palmitate at the N-terminal end, tyrosine phosphorylated ({lysine‑palmitate}-DTHFRTFRSHSD[pY]RRI)”: the “IL-1β increase induced by diabetes” value in the test on diabetic mice (db/db) [1] is “prevented the increase”. The substance also yielded a GFAP score in the test with diabetic mice (db/db) [2] (eye drops 50 μg in 5 μL/eye twice a day, 15 days, scale 0 to 5) of 3. In addition, the “reduction of GFAP glial protein staining” value in the test on diabetic mice (db/db) [2] (eye drops 15 days, compared with groups that received Mut peptide or vehicle) is listed as “about 80%”. Moreover, the “reduction in the size and extension of atheromatous lesions” value in test [3] (Oil-red-O/hematoxylin, compared with the control group that received the vehicle) is recorded as 50%. Further, in test [3] (plaque composition), the “collagen and vascular cells content of plaques” value is listed as “higher”; the “number of macrophages in the atherosclerotic lesions” value was “reduction”. Besides, the “STAT3 activation (phosphorylation)” value with STAT3 was “reduced STAT1 and STAT3 activation in a dose-dependent manner”.
